Experiments:
Format in all cases: functional
[1] = test system: HOP-62; experiment: Growth inhibition of human HOP62 cells at 10 uM after 24 hrs by MTT assay relative to control; parameters: scale not given: the % may be the effect or the level left
[2] = test system: HOP-92; experiment: Growth inhibition of human HOP92 cells at 10 uM after 24 hrs by MTT assay relative to control; parameters: scale not given: the % may be the effect or the level left
[3] = test system: MCF7; experiment: Growth inhibition of human MCF7 cells at 10 uM after 24 hrs by MTT assay relative to control; parameters: scale not given: the % may be the effect or the level left
[4] = test system: MDA-MB-231; experiment: Growth inhibition of human MDA-MB-231 cells at 10 uM after 24 hrs by MTT assay relative to control; parameters: scale not given: the % may be the effect or the level left
[5] = test system: MDA-MB-468; experiment: Growth inhibition of human MDA-MB-468 cells at 10 uM after 24 hrs by MTT assay relative to control; parameters: scale not given: the % may be the effect or the level left
[6] = test system: OVCAR-8; experiment: Growth inhibition of human OVCAR8 cells at 10 uM after 24 hrs by MTT assay relative to control; parameters: scale not given: the % may be the effect or the level left
[7] = test system: SK-OV-3; experiment: Growth inhibition of human SKOV3 cells at 10 uM after 24 hrs by MTT assay relative to control; parameters: scale not given: the % may be the effect or the level left
[8] = test system: ACHN; experiment: Growth inhibition of human ACHN cells at 10 uM after 24 hrs by MTT assay relative to control; parameters: scale not given: the % may be the effect or the level left
[9] = test system: LOX IMVI; experiment: Growth inhibition of human LOXIMVI cells at 10 uM after 24 hrs by MTT assay relative to control; parameters: scale not given: the % may be the effect or the level left
[10] = test system: Malme-3M; experiment: Growth inhibition of human MALME-3M cells at 10 uM after 24 hrs by MTT assay relative to control; parameters: scale not given: the % may be the effect or the level left
[11] = test system: UACC-257; experiment: Growth inhibition of human UACC257 cells at 10 uM after 24 hrs by MTT assay relative to control; parameters: scale not given: the % may be the effect or the level left
[12] = test system: DU-145; experiment: Growth inhibition of human DU145 cells at 10 uM after 24 hrs by MTT assay relative to control; parameters: scale not given: the % may be the effect or the level left
[13] = test system: CCRF-CEM; experiment: Growth inhibition of human CCRF-CEM cells after 24 hrs by MTT assay
[14] = Growth inhibition of human […] cells after 24 hrs by MTT assay
[15] = test system: HCC 2998; experiment: Growth inhibition of human HCC2998 cells after 24 hrs by MTT assay; settings: HCC 2998, 24 h
[16] = test system: HCT-116; experiment: Growth inhibition of human HCT116 cells after 24 hrs by MTT assay; settings: HCT-116, 24 h
[17] = test system: HT-29; experiment: Growth inhibition of human HT-29 cells after 24 hrs by MTT assay; settings: HT-29, 24 h
[18] = test system: KM12; experiment: Growth inhibition of human KM12 cells after 24 hrs by MTT assay; settings: KM12, 24 h
[19] = test system: SF-539; experiment: Growth inhibition of human SF539 cells after 24 hrs by MTT assay; settings: SF-539, 24 h
[20] = test system: U-251; experiment: Growth inhibition of human U251 cells after 24 hrs by MTT assay; settings: U-251, 24 h
[21] = test system: SK-MEL-5; experiment: Growth inhibition of human SK-MEL-5 cells after 24 hrs by MTT assay; settings: SK-MEL-5, 24 h
[22] = test system: IGROV-1; experiment: Growth inhibition of human IGROV1 cells after 24 hrs by MTT assay; settings: IGROV-1, 24 h
[23] = test system: OVCAR-3; experiment: Growth inhibition of human OVCAR-3 cells after 24 hrs by MTT assay; settings: OVCAR-3, 24 h
[24] = test system: OVCAR-4; experiment: Growth inhibition of human OVCAR4 cells after 24 hrs by MTT assay; settings: OVCAR-4, 24 h
[25] = test system: OVCAR-5; experiment: Growth inhibition of human OVCAR5 cells after 24 hrs by MTT assay; settings: OVCAR-5, 24 h
[26] = test system: ACHN; experiment: Growth inhibition of human ACHN cells after 24 hrs by MTT assay
[27] = test system: CAKI-1; experiment: Growth inhibition of human Caki1 cells after 24 hrs by MTT assay; settings: CAKI-1, 24 h
[28] = test system: SN12C; experiment: Growth inhibition of human SN12C cells after 24 hrs by MTT assay
[29] = test system: PC-3; experiment: Growth inhibition of human PC3 cells after 24 hrs by MTT assay; settings: PC-3, 24 h
[30] = test system: MCF7; experiment: Growth inhibition of human MCF7 cells after 24 hrs by MTT assay; settings: MCF7, 24 h
[31] = test system: MDA-MB-231; experiment: Growth inhibition of human MDA-MB-231 cells after 24 hrs by MTT assay; settings: MDA-MB-231, 24 h
[32] = Growth inhibition of human Hs 578T cells after 24 hrs by MTT assay
[33] = test system: BT-549; experiment: Growth inhibition of human BT549 cells after 24 hrs by MTT assay; settings: BT-549, 24 h
[34] = read-out: LC50 (the source's name)
[35] = read-out: pLC50 (the source's name) (converted)

SMILES: Cc1onc(-c2c3ccccc3c(Cl)c3ccccc23)c1C(=O)Nc1cc(C(=O)NCCCN(C)CCCNC(=O)c2cc(NC(=O)c3c(-c4c5ccccc5c(Cl)c5ccccc45)noc3C)cn2C)n(C)c1
- Activity [1]: -87.55%
- Activity [2]: -16.66%
- Activity [3]: -100%
- Activity [4]: -100%
- Activity [5]: -100%
- Activity [6]: -63.16%
- Activity [7]: -100%
- Activity [8]: -100%
- Activity [9]: -100%
- Activity [10]: -86.28%
- Activity [11]: -60.8%
- Activity [12]: -100%
- TGI [13]: 3.55 µM
- GI50 ([13]; read-out: GI50): 1.6 µM
- CC50 [13, 34]: 7.9 µM
- GI50 ([13]; read-out: pGI50 (converted)): 1.58 µM
- CC50 [13, 35]: 7.94 µM
- TGI [14]: 3.38 µM
- GI50 ([14]; read-out: GI50): 1.39 µM
- CC50 [14, 34]: 8.21 µM
- GI50 ([14]; read-out: pGI50 (converted)): 1.38 µM
- CC50 [14, 35]: 8.13 µM
- TGI [15]: 2.94 µM
- GI50 ([15]; read-out: GI50): 1.59 µM
- CC50 [15, 34]: 5.42 µM
- GI50 ([15]; read-out: pGI50 (converted)): 1.58 µM
- CC50 [15, 35]: 5.37 µM
- TGI [16]: 2.88 µM
- GI50 ([16]; read-out: GI50): 1.54 µM
- GI50 ([16]; read-out: pGI50 (converted)): 1.55 µM
- TGI [17]: 2.47 µM
- GI50 ([17]; read-out: GI50): 1.2 µM
- GI50 ([17]; read-out: pGI50 (converted)): 1.2 µM
- TGI [18]: 2.63 µM
- GI50 ([18]; read-out: GI50): 1.35 µM
- GI50 ([18]; read-out: pGI50 (converted)): 1.35 µM
- TGI [19]: 2.72 µM
- GI50 ([19]; read-out: GI50): 1.42 µM
- CC50 [19, 34]: 5.22 µM
- GI50 ([19]; read-out: pGI50 (converted)): 1.41 µM
- CC50 [19, 35]: 5.25 µM
- GI50 ([20]; read-out: GI50): 1.5 µM
- GI50 ([20]; read-out: pGI50 (converted)): 1.51 µM
- TGI [21]: 2.79 µM
- GI50 ([21]; read-out: GI50): 1.48 µM
- CC50 [21, 34]: 5.28 µM
- GI50 ([21]; read-out: pGI50 (converted)): 1.48 µM
- CC50 [21, 35]: 5.25 µM
- TGI [22]: 3.26 µM
- GI50 ([22]; read-out: GI50): 1.43 µM
- CC50 [22, 34]: 7.42 µM
- GI50 ([22]; read-out: pGI50 (converted)): 1.45 µM
- CC50 [22, 35]: 7.41 µM
- TGI [23]: 2.61 µM
- GI50 ([23]; read-out: GI50): 1.31 µM
- CC50 [23, 34]: 5.19 µM
- GI50 ([23]; read-out: pGI50 (converted)): 1.32 µM
- CC50 [23, 35]: 5.13 µM
- TGI [24]: 2.88 µM
- GI50 ([24]; read-out: GI50): 1.49 µM
- CC50 [24, 34]: 5.56 µM
- GI50 ([24]; read-out: pGI50 (converted)): 1.48 µM
- CC50 [24, 35]: 5.62 µM
- TGI [25]: 2.78 µM
- GI50 ([25]; read-out: GI50): 1.47 µM
- CC50 [25, 34]: 5.27 µM
- GI50 ([25]; read-out: pGI50 (converted)): 1.48 µM
- CC50 [25, 35]: 5.25 µM
- TGI [26]: 3.04 µM
- GI50 ([26]; read-out: GI50): 1.63 µM
- GI50 ([26]; read-out: pGI50 (converted)): 1.62 µM
- TGI [27]: 5.85 µM
- GI50 ([27]; read-out: GI50): 2.4 µM
- CC50 [27, 34]: 31.3 µM
- GI50 ([27]; read-out: pGI50 (converted)): 2.4 µM
- CC50 [27, 35]: 31.6 µM
- TGI [28]: 3.14 µM
- GI50 ([28]; read-out: GI50): 1.65 µM
- GI50 ([28]; read-out: pGI50 (converted)): 1.66 µM
- TGI [29]: 2.69 µM
- GI50 ([29]; read-out: GI50): 1.4 µM
- CC50 [29, 34]: 5.19 µM
- GI50 ([29]; read-out: pGI50 (converted)): 1.41 µM
- CC50 [29, 35]: 5.25 µM
- TGI [30]: 2.4 µM
- GI50 ([30]; read-out: GI50): 1.18 µM
- CC50 [30, 34]: 4.9 µM
- GI50 ([30]; read-out: pGI50 (converted)): 1.17 µM
- CC50 [30, 35]: 4.9 µM
- TGI [31]: 2.76 µM
- GI50 ([31]; read-out: GI50): 1.37 µM
- GI50 ([31]; read-out: pGI50 (converted)): 1.38 µM
- TGI [32]: 2.94 µM
- GI50 ([32]; read-out: GI50): 1.15 µM
- GI50 ([32]; read-out: pGI50 (converted)): 1.15 µM
- TGI [33]: 10.2 µM
- GI50 ([33]; read-out: GI50): 2.92 µM
- CC50 [33, 34]: 100 µM
- GI50 ([33]; read-out: pGI50 (converted)): 2.95 µM
- CC50 [33, 35]: > 100 µM

— ChEMBL document CHEMBL1152405, “Bis-anthracenyl isoxazolyl amides have enhanced anticancer activity” (Bioorg Med Chem Lett, 2009)
